Among the data in patent US9637485B2, “6,7-dihydrobenzo[a]quinolizin-2-one derivatives for the treatment and prophylaxis of hepatitis B virus infection” (Hoffmann-La Roche Inc., priority 2014, dated 2017) are IC50 values, retold here.

Molecules are shown by their SMILES. Read-outs that look alike come from different tables or passages of the source.

The test system of this assay is HBsAg. Briefly: HBsAg assay (CLIA of secreted HBsAg in HepG2.2.15 culture supernatant). Format: cell-based, HBV. The method, then:
HepG2.2.15 cells (Acs et al. Proc Natl Acad Sci USA, 84, (1987), 4641-4), a constitutively HBV-expressing cell line were cultured in DMEM+Glutamax-I medium (Invitrogen, Carlsbad, Calif., USA, Catalog number: 11320082), supplemented with 10% fetal bovine serum (Invitrogen, Catalog number: 10099141) and G418 (Invitrogen, Catalog number: 10131027) at a final concentration of 200 mg/L and maintained in 5% CO2 at 37° C.
HepG2.2.15 cells were seeded in duplicate into white, 96-well plates at 1.5×10^4 cells/well. The cells were treated with a three-fold serial dilution series of the compounds in DMSO. The final DMSO concentration in all wells was 1% and DMSO was used as no drug control.
The HBsAg chemiluminescence immunoassay (CLIA) kit (Autobio Diagnostics Co., Zhengzhou, China, Catalog number: CL0310-2) was used to measure the levels of secreted HBV antigens semi-quantitatively. For the detection 50 μL/well culture supernatant was used and HBsAg was quantified using HBsAg chemiluminescence immunoassay (CLIA) kit (Autobio Diagnostics Co., Zhengzhou, China, Catalog number: CL0310-2), 50 μl of the supernatant was transferred to the CLIA assay plate and 50 μL of enzyme conjugate reagent was added into each well. The plates were sealed and gently agitated for 1 hour at room temperature. The supernatant-enzyme-mixture was discarded and wells were washed 6 times with 300 μL of PBS. The residual liquid was removed by plating the CLIA plate right side down on absorbent tissue paper. 25 μL of substrates A and B were added to each well. Luminance was measured using a luminometer (Mithras LB 940 Multimode Microplate Reader) after 10 minutes incubation. Dose-response curves were generated and the IC50 value was extrapolated by using the E-WorkBook Suite (ID Business Solutions Ltd., Guildford, UK). The IC50 was defined as the compound concentration (or conditioned media log dilution) at which HBsAg secretion was reduced by 50% compared to the no drug control.

Setting [1] is: Hepatitis B virus, HepG2.2.15, read-out: IC50 (HBsAg secretion reduced by 50% compared to the no drug control), HepG2.2.15 cells, culture supernatant, HBsAg CLIA.

On to `COCC(C)(C)C1Cc2cc(OCCCn3cccn3)c(OC)cc2-c2cc(=O)c(C(=O)O)cn21` (stereo not drawn) [Example 44, 10-Methoxy-6-(2-methoxy-1,1-dimethyl-ethyl)-2-oxo-9-(3-pyrazol-1-ylpropoxy)-6,7-dihydrobenzo[a]quinolizine-3-carboxylic acid], for which, under setting [1], the 50% inhibitory concentration (IC50) is 190 nM. In the case of `CCOc1cc2c(cc1OCC)-c1cc(=O)c(C(=O)O)cn1C(CN1CCCC1)C2` (stereo not drawn) [Example 42, 9,10-Diethoxy-2-oxo-6-(pyrrolidin-1-ylmethyl)-6,7-dihydrobenzo[a]quinolizine-3-carboxylic acid], under setting [1], the IC50 came out at 216 nM.

With `COCCCOc1cc2c(cc1Cl)-c1cc(=O)c(C(=O)O)cn1C(C1CCOCC1)C2` (stereo not drawn) [Example 19, 10-Chloro-9-(3-methoxypropoxy)-2-oxo-6-tetrahydropyran-4-yl-6,7-dihydrobenzo[a]quinolizine-3-carboxylic acid], the IC50 under setting [1] worked out at 88 nM. `CCOc1cc2c(cc1OCC)-c1cc(=O)c(C(=O)O)cn1C(CNC(=O)c1ccccc1)C2` (stereo not drawn) [Example 39, 6-(Benzamidomethyl)-9,10-diethoxy-2-oxo-6,7-dihydrobenzo[a]quinolizine-3-carboxylic acid]: the IC50 under setting [1] worked out at 19800 nM.

Take `COCC(C)(C)C1Cc2cc(OCCCN3CCCC3)c(OC)cc2-c2cc(=O)c(C(=O)O)cn21` (stereo not drawn) [Example 11, 10-Methoxy-6-(2-methoxy-1,1-dimethyl-ethyl)-2-oxo-9-(3-pyrrolidin-1-ylpropoxy)-6,7-dihydrobenzo[a]quinolizine-3-carboxylic acid]: under setting [1], the IC50 is 519 nM. Still for that read-out and setting: then `COCC(C)(C)C1Cc2cc(OCCCS(C)(=O)=O)c(OC)cc2-c2cc(=O)c(C(=O)O)cn21` (stereo not drawn) [Example 15, 10-Methoxy-6-(2-methoxy-1,1-dimethyl-ethyl)-9-(3-methylsulfonylpropoxy)-2-oxo-6,7-dihydrobenzo[a]quinolizine-3-carboxylic acid], with 124 nM; and `COCC(C)(C)C1Cc2cc(OCCCSC)c(OC)cc2-c2cc(=O)c(C(=O)O)cn21` (stereo not drawn) [Example 10, 10-Methoxy-6-(2-methoxy-1,1-dimethyl-ethyl)-9-(3-methylsulfanylpropoxy)-2-oxo-6,7-dihydrobenzo[a]quinolizine-3-carboxylic acid], with 6 nM; and `CCOc1cc2c(cc1OCC)-c1cc(=O)c(C(=O)O)cn1C(CN)C2` (stereo not drawn) [Example 37, 6-(Aminomethyl)-9,10-diethoxy-2-oxo-6,7-dihydrobenzo[a]quinolizine-3-carboxylic acid], with 1540 nM. For the molecule `COCC(C)(C)C1Cc2cc(N3CCCC3)c(OC)cc2-c2cc(=O)c(C(=O)O)cn21` (stereo not drawn) [Example 46, 10-Methoxy-6-(2-methoxy-1,1-dimethyl-ethyl)-2-oxo-9-pyrrolidin-1-yl-6,7-dihydrobenzo[a]quinolizine-3-carboxylic acid], the IC50 under setting [1] stood at 9 nM. On the same count and under the same terms, with `CCOc1cc2c(cc1OCC)-c1cc(=O)c(C(=O)O)cn1C(COC(C)=O)C2` (stereo not drawn) [Example 36, 6-(Acetoxymethyl)-9,10-diethoxy-2-oxo-6,7-dihydrobenzo[a]quinolizine-3-carboxylic acid] the figure was 254 nM. With `COCCCOc1cc2c(cc1OC)-c1cc(=O)c(C(=O)O)cn1C(C(C)(C)CO)C2` (single isomer, unassigned) [Example 26, (−)-6-(2-hydroxy-1,1-dimethyl-ethyl)-10-methoxy-9-(3-methoxypropoxy)-2-oxo-6,7-dihydrobenzo[a]quinolizine-3-carboxylic acid], where the note is “read-out: IC50 (HBsAg secretion reduced by 50% compared to the no drug control), HepG2.2.15 cells, culture supernatant, HBsAg CLIA”, the IC50 was 84 nM. As for `COCC(C)(C)C1Cc2cc(OCC(C)(C)CO)c(OC)cc2-c2cc(=O)c(C(=O)O)cn21` (stereo not drawn) [Example 7, 9-(3-Hydroxy-2,2-dimethyl-propoxy)-10-methoxy-6-(2-methoxy-1,1-dimethyl-ethyl)-2-oxo-6,7-dihydrobenzo[a]quinolizine-3-carboxylic acid], the IC50 under setting [1] worked out at 9 nM.

The term IC50 denotes the point on the concentration scale where inhibition reaches its midpoint.
